# Laboratory results as given in patent publication US20230227427A1, “IL-17A MODULATORS” (SANOFI, priority 2010, published 2023).
# Read-outs that look alike come from different tables or passages of the source.
# Molecular target: T1, human recombinant IL-17A (Homo sapiens, UniProt Q16552)
# T1 construct: purchased R&D Systems 7955-IL/CF
# T1 sequence (Q16552 24-155): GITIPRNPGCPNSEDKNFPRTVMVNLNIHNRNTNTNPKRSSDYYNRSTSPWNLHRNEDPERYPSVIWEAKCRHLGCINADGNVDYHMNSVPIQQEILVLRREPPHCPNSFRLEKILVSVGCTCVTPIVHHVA
# Assay: IL-17A AlphaLISA assay (block binding of IL-17A to its receptor IL-17RA)
# Conditions: read-out: AlphaLISA pIC50 (converted)
# Description: The ability of the compounds to block binding of IL-17A to its receptor, IL-17RA, was analysed in a competition assay using AlphaLISA technology (Perkin Elmer). The assay is a bead based AlphaLISA where the IL-17RA is captured on the acceptor bead via an Fc tag and IL-17A is captured on the streptavidin donor bead via a biotinylated anti-IL17A antibody.
# Assay buffer was prepared by adding 0.05% Tween-20 (v/v) and 0.1% BSA to Phosphate Buffered Saline (PBS). The assay was carried out in 384-well white low volume plates (Corning 4512). 10 µL of a 7.5 nM stock of human recombinant IL-17A (R&D Systems 7955-IL/CF) diluted in assay buffer was dispensed into the assay plate and compounds or DMSO vehicle control were added in a volume of 75 nL using a D300 dispenser (Hewlett Packard). The compounds were pre-incubated with the IL-17A for 24 h at room temperature (or for 30 min, where indicated by * in Table A below) prior to addition of 5 μL of a 5 nM stock of human recombinant IL-17RA/Fc chimera (R&D Systems 177-IR-100) diluted in assay buffer. The IL-17A was incubated with the receptor for a further 90 minutes at room temperature before addition of 5 μL of a mixture of anti-human Fc IgG acceptor beads (75 μg/mL, Perkin Elmer AL103C) and anti-IL-17A biotin conjugated antibody (5 nM, Enzo Life Sciences, ENZ-ABS278-0100) in assay buffer. After a further 30 min incubation at room temperature, 5 μL of streptavidin donor beads ([…], Perkin Elmer 6760002S) were added and the plate was incubated for 3 h in the dark.
# The luminescence signal was measured using an Enspire plate reader (Perkin Elmer) with excitation at 680 nm and emission at 615 nm. Data were analysed using GraphPad Prism and fitted to a 4-parameter logistic equation. The IC50 values were calculated using the DMSO vehicle as the negative control and a high concentration (6 μM) of a reference IL-17A inhibitor as the positive control.
# Activity of the Example compounds is reported as a PIC50 value in Table A.
# [1] = compounds pre-incubated with the IL-17A for 30 min (indicated by * in Table A)
# [2] = compounds pre-incubated with the IL-17A for 24 h at room temperature
IC50 [1] [nM],IC50 [2] [nM],SMILES
501,–,"Cc1noc(C)c1-c1ccc(NC(=O)[C@@H](NC(=O)c2cnnn2C)C2CCCCCC2)nc1 [Example 117, (S)—N-(1-Cycloheptyl-2-((5-(3,5-dimethylisoxazol-4-yl)pyridin-2-yl)amino)-2-oxoethyl)-1-methyl-1H-1,2,3-triazole-5-carboxamide]"
–,126,"Cn1nccc1C(=O)N[C@H](C(=O)Nc1ccc(C2(O)CCOCC2)cc1)[C@H]1CC[C@H](C)CC1 [Example 94, N—((S)-2-((4-(4-Hydroxytetrahydro-2H-pyran-4-yl)phenyl)amino)-1-((1r,4S)-4-methylcyclohexyl)-2-oxoethyl)-1-methyl-1H-pyrazole-5-carboxamide]"
100,–,"CCn1nccc1C(=O)N[C@H](C(=O)Nc1ccc(-c2c(C)nnn2C)cn1)[C@H]1CC[C@H](C)CC1 [Example 159, N—((S)-2-((5-(1,4-dimethyl-1H-1,2,3-triazol-5-yl)pyridin-2-yl)amino)-1-((1r,4S)-4-methylcyclohexyl)-2-oxoethyl)-1-ethyl-1H-pyrazole-5-carboxamide]"
316,–,"Cc1noc(C)c1-c1ccc(NC(=O)[C@@H](NC(=O)c2ccnn2C)C2CCCCC2)nc1 [Example 129, (S)—N-(1-Cyclohexyl-2-((5-(3,5-dimethylisoxazol-4-yl)pyridin-2-yl)amino)-2-oxoethyl)-1-methyl-1H-pyrazole-5-carboxamide]"
–,200,"Cn1nccc1C(=O)N[C@H](C(=O)Nc1ccc(-c2cnc3ncccn23)cc1)C(c1ccccc1)c1ccccc1 [Example 41, (S)—N-(1-((4-(imidazo[1,2-a]pyrimidin-3-yl)phenyl)amino)-1-oxo-3,3-diphenylpropan-2-yl)-1-methyl-1H-pyrazole-5-carboxamide]"
–,63.1,"Cc1cncc(C)c1-c1ccc(NC(=O)[C@@H](NC(=O)c2ccnn2C)[C@H]2CC[C@H](C)CC2)nc1 [Example 90, N—((S)-2-((3′,5′-Dimethyl-[3,4′-bipyridin]-6-yl)amino)-1-((1r,4S)-4-methylcyclohexyl)-2-oxoethyl)-1-methyl-1H-pyrazole-5-carboxamide]"
–,100,"Cn1nccc1C(=O)N[C@H](C(=O)Nc1ccc(C2=CCOCC2)cc1)[C@H]1CC[C@H](C)CC1 [Example 95, N—((S)-2-((4-(3,6-Dihydro-2H-pyran-4-yl)phenyl)amino)-1-((1r,4S)-4-methylcyclohexyl)-2-oxoethyl)-1-methyl-1H-pyrazole-5-carboxamide]"
158,–,"Cc1cnn(C)c1-c1ccc(NC(=O)[C@@H](NC(=O)c2conc2C)C2CCCCC2)nc1 [Example 181, (S)—N-(1-cyclohexyl-2-((5-(1,4-dimethyl-1H-pyrazol-5-yl)pyridin-2-yl)amino)-2-oxoethyl)-3-methylisoxazole-4-carboxamide]"
–,251,"CCn1nccc1C(=O)N[C@H](C(=O)Nc1ccc(-c2ccc(=O)n(C)c2C)cn1)[C@H]1CC[C@H](C)CC1 [Example 91, N—((S)-2-((1′,2′-Dimethyl-6′-oxo-1′,6′-dihydro-[3,3′-bipyridin]-6-yl)amino)-1-((1r,4S)-4-methylcyclohexyl)-2-oxoethyl)-1-ethyl-1H-pyrazole-5-carboxamide]"
–,100,"Cc1cc(-c2ccc(NC(=O)[C@@H](NC(=O)c3ccnn3C)C(c3ccccc3)c3ccccc3)cc2)c(C)cn1 [Example 38, (S)—N-(1-((4-(2,5-dimethylpyridin-4-yl)phenyl)amino)-1-oxo-3,3-diphenylpropan-2-yl)-1-methyl-1H-pyrazole-5-carboxamide]"
–,15.8,"Cc1c(-c2ccc(NC(=O)[C@@H](NC(=O)c3ccnn3C)C(c3ccccc3)c3ccccc3)cc2F)ccc(=O)n1C [Example 16, (S)—N-(1-((4-(1,2-dimethyl-6-oxo-1,6-dihydropyridin-3-yl)-3-fluorophenyl)amino)-1-oxo-3,3-diphenylpropan-2-yl)-1-methyl-1H-pyrazole-5-carboxamide]"
–,50.1,"Cc1cnccc1-c1ccc(NC(=O)[C@@H](NC(=O)c2ccnn2C)C(c2ccccc2)c2ccccc2)cc1F [Example 15, (S)—N-(1-((3-fluoro-4-(3-methylpyridin-4-yl)phenyl)amino)-1-oxo-3,3-diphenylpropan-2-yl)-1-methyl-1H-pyrazole-5-carboxamide]"
–,7.94,"Cn1nccc1C(=O)N[C@H](C(=O)Nc1ccc(-c2c[nH]c(=O)c3[nH]ccc23)c(F)c1)C(c1ccccc1)c1ccccc1 [Example 68, (S)—N-(1-((3-fluoro-4-(7-oxo-6,7-dihydro-1H-pyrrolo[2,3-c]pyridin-4-yl)phenyl)amino)-1-oxo-3,3-diphenylpropan-2-yl)-1-methyl-1H-pyrazole-5-carboxamide]"
200,–,"CCn1nccc1C(=O)N[C@H](C(=O)Nc1ccc(-c2c(CO)cnn2C)cn1)C1CCCCCC1 [Example 198, (S)—N-(1-cycloheptyl-2-((5-(4-(hydroxymethyl)-1-methyl-1H-pyrazol-5-yl)pyridin-2-yl)amino)-2-oxoethyl)-1-ethyl-1H-pyrazole-5-carboxamide]"
251,–,"Cc1cnn(C)c1-c1ccc(NC(=O)[C@@H](NC(=O)c2cnnn2C)C2CCCCCC2)nc1 [Example 133, (S)—N-(1-Cycloheptyl-2-((5-(1,4-dimethyl-1H-pyrazol-5-yl)pyridin-2-yl)amino)-2-oxoethyl)-1-methyl-1H-1,2,3-triazole-5-carboxamide]"
63.1,–,"Cc1cnn(C)c1-c1ccc(NC(=O)[C@@H](NC(=O)c2conc2C)[C@H]2CC[C@H](C)CC2)nc1 [Example 131, N—((S)-2-((5-(1,4-Dimethyl-1H-pyrazol-5-yl)pyridin-2-yl)amino)-1-((1r,4S)-4-methylcyclohexyl)-2-oxoethyl)-3-methylisoxazole-4-carboxamide]"
–,12.6,"CNc1cnccc1-c1ccc(NC(=O)[C@@H](NC(=O)c2ccnn2C)C(c2ccccc2)c2ccccc2)cc1 [Example 7, (S)-1-methyl-N-(1-((4-(3-(methylamino)pyridin-4-yl)phenyl)amino)-1-oxo-3,3-diphenylpropan-2-yl)-1H-pyrazole-5-carboxamide]"
251,–,"CCn1nnc(C)c1-c1ccc(NC(=O)[C@@H](NC(=O)c2ccnn2C)C2CCCCCC2)nc1 [Example 157, (S)—N-(1-cycloheptyl-2-((5-(1-ethyl-4-methyl-1H-1,2,3-triazol-5-yl)pyridin-2-yl)amino)-2-oxoethyl)-1-methyl-1H-pyrazole-5-carboxamide]"
–,63.1,"Cn1nccc1C(=O)N[C@H](C(=O)Nc1ccc(-c2c[nH]c(=O)c3[nH]ccc23)cc1)[C@H]1CC[C@H](C)CC1 [Example 85, 1-Methyl-N—((S)-1-((1r,4S)-4-methylcyclohexyl)-2-oxo-2-((4-(7-oxo-6,7-dihydro-1H-pyrrolo[2,3-c]pyridin-4-yl)phenyl)amino)ethyl)-1H-pyrazole-5-carboxamide]"
–,20,"Cc1c(-c2c(F)cc(NC(=O)[C@@H](NC(=O)c3ccnn3C)C(c3ccccc3)c3ccccc3)cc2F)ccc(=O)n1C [Example 29, (S)—N-(1-((4-(1,2-dimethyl-6-oxo-1,6-dihydropyridin-3-yl)-3,5-difluorophenyl)amino)-1-oxo-3,3-diphenylpropan-2-yl)-1-methyl-1H-pyrazole-5-carboxamide]"
–,79.4,"Cn1nccc1C(=O)N[C@H](C(=O)Nc1ccc(-c2c[nH]c(=O)c3[nH]cnc23)c(F)c1)C(c1ccccc1)c1ccccc1 [Example 69, (S)—N-(1-((3-fluoro-4-(4-oxo-4,5-dihydro-3H-imidazo[4,5-c]pyridin-7-yl)phenyl)amino)-1-oxo-3,3-diphenylpropan-2-yl)-1-methyl-1H-pyrazole-5-carboxamide]"
–,126,"Cc1nccc(-c2ccc(NC(=O)[C@@H](NC(=O)c3ccnn3C)C(c3ccccc3)c3ccccc3)cc2F)c1C [Example 57, (S)—N-(1-((4-(2,3-dimethylpyridin-4-yl)-3-fluorophenyl)amino)-1-oxo-3,3-diphenylpropan-2-yl)-1-methyl-1H-pyrazole-5-carboxamide]"
–,25.1,"Cn1nccc1C(=O)N[C@H](C(=O)Nc1ccc(-c2ccnc3c2CCN3)cc1)C(c1ccccc1)c1ccccc1 [Example 22, (S)—N-(1-((4-(2,3-dihydro-1H-pyrrolo[2,3-b]pyridin-4-yl)phenyl)amino)-1-oxo-3,3-diphenylpropan-2-yl)-1-methyl-1H-pyrazole-5-carboxamide]"
